Like-named read-outs stand apart in the source and are kept apart here.
Key:
[1] = system: cefepime-resistant Escherichia coli; test: MIC in combination with cefepime for drug-resistant bacteria (Test Example 2); assay type: cell-based; conditions: for MIC: Escherichia coli, with CPM 8 μg/mL
Method: (§1) The biosafety cabinet was sterilized with ultraviolet light for 30 min. Glycerol tubes were taken out of a −80° C. freezer, and streaks were gently formed in the glycerol tubes using inoculating loops. Bacteria were inoculated onto MHIIA solid plates. The plates were incubated overnight in a 37° C. incubator.
(§2) 30 μL of compound stock solution was added to column 1 of a 96-well v-bottom plate, and DMSO was added to columns 2-10. Subsequently, 15 μL was transferred from column 1 to column 2 using a pipette and well mixed gently, and then 15 μL of solution was transferred from column 2 to column 3; the serial dilution process proceeded to column 10 (200×β-lactamase inhibitor working solutions were prepared). The antibiotic was diluted with a corresponding solvent to form a 1.6 mg/mL solution.

[2] = system: cefepime-resistant Klebsiella pneumoniae; test: as above; assay type: cell-based; conditions: for MIC: Klebsiella pneumoniae, with CPM 8 μg/mL
Method: as §1, §2

[3] = system: cefepime-resistant Pseudomonas aeruginosa; test: as above; assay type: cell-based
Method: as §1, §2

[4] = system: cefepime-resistant Acinetobacter baumannii; test: as above; assay type: cell-based; conditions: for concentration for achieving a bacteriostatic effect where the CPM MIC is fixed at 8 μg/mL: with CPM 8 μg/mL
Method: as §1, §2

[5] = system: cefepime-resistant Klebsiella pneumoniae expressing different types of β-lactamases; test: microbe, parasite or virus in culture; assay type: cell-based; conditions: for MIC: Klebsiella pneumoniae; for MIC, Cefepime + compound (8 ug/ml): inhibitor at 8 ug/ml
Method: as §1
as §2, with “3:” for “3;”

[6] = Single intravenous administration exposure, pharmacokinetics (Test Example 4); assay type: in vivo, ICR mice; conditions: ICR mice, single intravenous injection, plasma; for AUC(0-t) / AUC(0-inf) / Cmax / Tmax: mouse, in vivo; for AUC(0-t): read-out: AUC0-t; for AUC(0-inf): read-out: AUCinf; for Cmax: read-out: Cmax; for Tmax: read-out: Tmax
Method: The solutions were prepared on the day of administration and stored at 4° C.
Single intravenous injections were administered to ICR mice, which were grouped as follows. Blood was collected from the saphenous vein or the fundus venous plexus at 0.083 h, 0.25 h, 0.5 h, 1 h, 2 h, 4 h, 6 h and 12 h after administration (about 0.1 mL/time point). A biological analysis method was developed to determine plasma concentrations at different time points, and related pharmacokinetic parameters were calculated.

[7] = summary in words of Test Example 2

SMILES: O=C([O-])c1c2c(cc3c1O[B-](O)(O)[C@@H]1C[C@H]31)OCCO2.[Na+].[Na+] [Compound 1-1-Na]
- MIC ([1]; read-out: concentration for achieving a bacteriostatic effect where the CPM MIC is fixed at 8 μg/mL, strain FDA-CDC AR-BANK#0055): 1 µg/mL
- MIC ([1]; read-out: concentration for achieving a bacteriostatic effect where the CPM MIC is fixed at 8 μg/mL, strain FDA-CDC AR-BANK#0114): 0.0312 µg/mL
- MIC ([1]; read-out: concentration for achieving a bacteriostatic effect where the CPM MIC is fixed at 8 μg/mL, strain FDA-CDC AR-BANK#0370): 1 µg/mL
- MIC ([1]; read-out: concentration for achieving a bacteriostatic effect where the CPM MIC is fixed at 8 μg/mL, strain FDA-CDC AR-BANK#0371): ≤ 0.0156 µg/mL
- restoring to cefepime antibacterial activity against cefepime-resistant Escherichia coli [1, 7]: significantly restore to cefepime antibacterial activity
- MIC ([2]; read-out: concentration for achieving a bacteriostatic effect where the CPM MIC is fixed at 8 μg/mL, strain FDA-CDC AR-BANK#0003): 0.125 µg/mL
- MIC ([2]; read-out: concentration for achieving a bacteriostatic effect where the CPM MIC is fixed at 8 μg/mL, strain FDA-CDC AR-BANK#0076): 0.25 µg/mL
- MIC ([2]; read-out: concentration for achieving a bacteriostatic effect where the CPM MIC is fixed at 8 μg/mL, strain FDA-CDC AR-BANK#0080): 2 µg/mL
- MIC ([2]; read-out: concentration for achieving a bacteriostatic effect where the CPM MIC is fixed at 8 μg/mL, strain FDA-CDC AR-BANK#0126): ≤ 0.0156 µg/mL
- MIC ([2]; read-out: concentration for achieving a bacteriostatic effect where the CPM MIC is fixed at 8 μg/mL, strain FDA-CDC AR-BANK#0158): 2 µg/mL
- restoring to cefepime antibacterial activity against cefepime-resistant Klebsiella pneumoniae [2, 7]: significantly restore to cefepime antibacterial activity
- MIC ([3]; read-out: concentration for achieving a bacteriostatic effect where the CPM MIC is fixed at 8 μg/mL, strain FDA-CDC AR-BANK#0246, with CPM 8 μg/mL): > 16 µg/mL
- MIC ([3]; read-out: concentration for achieving a bacteriostatic effect where the CPM MIC is fixed at 8 μg/mL, strain FDA-CDC AR-BANK#0439, with CPM 8 μg/mL): > 16 µg/mL
- MIC ([3]; read-out: concentration for achieving a bacteriostatic effect where the CPM MIC is fixed at 8 μg/mL, strain FDA-CDC AR-BANK#0441, with CPM 8 μg/mL): 8 µg/mL
- MIC ([3]; read-out: concentration for achieving a bacteriostatic effect where the CPM MIC is fixed at 8 μg/mL, strain FDA-CDC AR-BANK#0444, with CPM 8 μg/mL): 16 µg/mL
- MIC ([4]; Acinetobacter baumannii, read-out: concentration for achieving a bacteriostatic effect where the CPM MIC is fixed at 8 μg/mL): > 16 µg/mL
- concentration for achieving a bacteriostatic effect where the CPM MIC is fixed at 8 μg/mL ([4]; strain FDA-CDC AR-BANK#0035): >16 µg/mL
- concentration for achieving a bacteriostatic effect where the CPM MIC is fixed at 8 μg/mL ([4]; strain FDA-CDC AR-BANK#0078): >16 µg/mL
- MIC ([5]; ATCCBAA1705, read-out: MIC, single substance (1-1-Na, QPX7728, CPM), strain ATCC BAA-1705, KPC-2, TEM, SHV, Class A): > 128 µg/mL
- MIC ([5]; ATCCBAA1898, read-out: MIC, single substance (1-1-Na, QPX7728, CPM), strain ATCC BAA-1898, KPC-2, Class A): > 128 µg/mL
- MIC ([5]; ATCCBAA1899, read-out: MIC, single substance (1-1-Na, QPX7728, CPM), strain ATCC BAA-1899, KPC-2, Class A): 64 µg/mL
- MIC ([5]; ATCCBAA2343, read-out: MIC, single substance (1-1-Na, QPX7728, CPM), strain ATCC BAA-2343, KPC, Class A): > 128 µg/mL
- MIC ([5]; ATCCBAA2470, read-out: MIC, single substance (1-1-Na, QPX7728, CPM), strain ATCC BAA-2470, NDM-1, Class B): 64 µg/mL
- MIC ([5]; read-out: MIC, single substance (1-1-Na, QPX7728, CPM), strain ARLG-1127 (Urine), KPC, KPC-3, TEM, TEM-1, Class A): > 128 µg/mL
- MIC ([5]; read-out: MIC, single substance (1-1-Na, QPX7728, CPM), strain ARLG-1195, CTM-1 group, SHV, NDM, Class A, B): > 128 µg/mL
- MIC ([5]; read-out: MIC, single substance (1-1-Na, QPX7728, CPM), strain ARLG-1196, CTM-1 group, SHV, NDM, TEM, Class A, B): 128 µg/mL
- MIC, Cefepime + compound (8 ug/ml) ([5]; strain ARLG-1127 (Urine), KPC, KPC-3, TEM, TEM-1, Class A): 0.25 µg/mL
- MIC, Cefepime + compound (8 ug/ml) ([5]; strain ARLG-1195, CTM-1 group, SHV, NDM, Class A, B): ≤0.125 µg/mL
- MIC, Cefepime + compound (8 ug/ml) ([5]; strain ARLG-1196, CTM-1 group, SHV, NDM, TEM, Class A, B): ≤0.125 µg/mL
- MIC, Cefepime + compound (8 ug/ml) ([5]; strain ATCC BAA-1705, KPC-2, TEM, SHV, Class A): <0.125 µg/mL
- MIC, Cefepime + compound (8 ug/ml) ([5]; strain ATCC BAA-1898, KPC-2, Class A): <0.125 µg/mL
- MIC, Cefepime + compound (8 ug/ml) ([5]; strain ATCC BAA-1899, KPC-2, Class A): ≤0.125 µg/mL
- MIC, Cefepime + compound (8 ug/ml) ([5]; strain ATCC BAA-2343, KPC, Class A): 0.25 µg/mL
- MIC, Cefepime + compound (8 ug/ml) ([5]; strain ATCC BAA-2470, NDM-1, Class B): ≤0.125 µg/mL
- t½z ([6]; 10 mg/kg): 115 min
- t½z ([6]; 100 mg/kg): 178 min
- AUC(0-t) ([6]; 10 mg/kg): 211 µg·h/mL
- AUC(0-inf) ([6]; 10 mg/kg): 213 µg·h/mL
- Cmax ([6]; 10 mg/kg): 146 µg/mL
- Tmax ([6]; 10 mg/kg): 4.98 min
- AUC(0-t) ([6]; 100 mg/kg): 1400 µg·h/mL
- AUC(0-inf) ([6]; 100 mg/kg): 1540 µg·h/mL
- Cmax ([6]; 100 mg/kg): 607 µg/mL
- Tmax ([6]; 100 mg/kg): 4.98 min

Source: patent US20240209004A1, “BORIC ACID DERIVATIVE ACTING AS Beta-LACTAMASE INHIBITOR” (TUOJIE BIOTECH (SHANGHAI) CO., LTD., priority 2021, published 2024)
